This note sets out measurements from patent publication US20260226000A1, “Methadone Active Agents and Methods of Use Thereof” (Ensysce Biosciences Inc., priority 2023, published 2026).

Series [1] in a line: Maximally tolerated dose study by oral gavage administration.
Series [2] has as its target hERG (human ether-à-go-go-related gene) channel expressed in CHO cells (Homo sapiens, UniProt Q12809). In words: ScreenPatch assay, hERG ion channel block (SyncroPatch 384PE patch clamp). The settings on record: for Methadone Active Agent/Methadone Ratio (hERG IC50): IC50 relative to racemic methadone HCl. (In general: The hERG channel carries a current that helps repolarise heart muscle cells.)

Structures can show the parent of a compound that is named as a salt. Where only a bound is given, the exact number is not on record here.

Sequence of hERG (human ether-à-go-go-related gene) channel expressed in CHO cells (Q12809 whole entry): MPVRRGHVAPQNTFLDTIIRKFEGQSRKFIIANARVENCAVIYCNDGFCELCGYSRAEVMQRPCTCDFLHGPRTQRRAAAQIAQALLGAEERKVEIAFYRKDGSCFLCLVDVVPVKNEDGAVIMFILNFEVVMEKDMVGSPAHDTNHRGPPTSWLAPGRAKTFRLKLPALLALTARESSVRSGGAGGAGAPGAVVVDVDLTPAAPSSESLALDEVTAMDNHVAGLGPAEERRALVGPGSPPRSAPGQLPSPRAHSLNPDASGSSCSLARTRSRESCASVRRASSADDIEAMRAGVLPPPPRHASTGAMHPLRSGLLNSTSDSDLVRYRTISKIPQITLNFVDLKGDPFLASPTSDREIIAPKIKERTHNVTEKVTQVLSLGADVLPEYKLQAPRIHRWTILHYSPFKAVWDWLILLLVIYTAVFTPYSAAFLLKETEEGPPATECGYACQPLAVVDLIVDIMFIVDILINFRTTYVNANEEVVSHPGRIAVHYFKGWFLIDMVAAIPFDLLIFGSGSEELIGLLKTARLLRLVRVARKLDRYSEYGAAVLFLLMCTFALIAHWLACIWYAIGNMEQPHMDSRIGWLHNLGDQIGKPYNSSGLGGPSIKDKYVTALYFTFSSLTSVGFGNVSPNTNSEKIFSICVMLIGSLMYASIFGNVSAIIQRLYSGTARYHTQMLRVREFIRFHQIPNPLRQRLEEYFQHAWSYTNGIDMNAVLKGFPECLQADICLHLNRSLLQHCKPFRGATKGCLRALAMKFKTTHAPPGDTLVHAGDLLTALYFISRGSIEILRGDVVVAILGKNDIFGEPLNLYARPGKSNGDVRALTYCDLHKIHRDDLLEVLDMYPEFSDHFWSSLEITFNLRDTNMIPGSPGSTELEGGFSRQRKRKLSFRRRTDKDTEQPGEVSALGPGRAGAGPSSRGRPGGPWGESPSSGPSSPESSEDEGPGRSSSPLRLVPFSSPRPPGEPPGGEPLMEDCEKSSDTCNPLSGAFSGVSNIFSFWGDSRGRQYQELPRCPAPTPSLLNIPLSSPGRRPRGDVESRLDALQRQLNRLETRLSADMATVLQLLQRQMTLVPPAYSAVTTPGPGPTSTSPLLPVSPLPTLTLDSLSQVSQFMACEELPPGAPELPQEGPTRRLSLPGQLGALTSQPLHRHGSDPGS

What is called IC50 is the concentration at which inhibition is half-maximal. `C/C=C(/OC(=O)N(C)C(C)CNC(=O)[C@H](CCCNC(=N)N)NC(=O)c1ccccc1)C(C[C@@H](C)N(C)C)(c1ccccc1)c1ccccc1.O=C(O)C(F)(F)F` (stereo partly drawn) [Levo 1ME active agent, (R)-6-(dimethylamino)-4,4-diphenylhept-2-en-3-yl (1-((S)-2-benzamido-5-guanidinopentanamido)propan-2-yl)(methyl)carbamate 2,2,2-trifluoroacetate]: the clinical observations entry in series [1] (doses up to 100 mg/kg) was “did not have any clinical observations”. Moreover, in series [2], the IC50 is greater than 100 µM and the “Methadone Active Agent/Methadone Ratio (hERG IC50)” value is listed as greater than 53.

Take `C/C=C(/OC(=O)N(C)C[C@@H](C)NC(=O)[C@H](CCCNC(=N)N)NC(=O)c1ccccc1)C(C[C@@H](C)N(C)C)(c1ccccc1)c1ccccc1.O=C(O)C(F)(F)F` [Levo 2RME active agent, (R)-6-(dimethylamino)-4,4-diphenylhept-2-en-3-yl ((R)-2-((S)-2-benzamido-5-guanidinopentanamido)propyl)(methyl)carbamate 2,2,2-trifluoroacetate]: the clinical observations entry in series [1] (100 mg/kg and 125 mg/kg) was “no clinical observations through 72 hr period or limited observations”. For the same molecule, the clinical observations result in series [1] (50 and 75 mg/kg) is on record as “some observations”. In addition, in series [2], the IC50 came out at 29.4 µM and the “Methadone Active Agent/Methadone Ratio (hERG IC50)” value was determined as 15.6.

In turn, `CCC(=O)C(CC(C)N(C)C)(c1ccccc1)c1ccccc1` (racemic) [Racemic Methadone HCl, Methadone] returned an IC50 in series [2] of 1.89 µM.

`C/C=C(/OC(=O)N(C)CCCCNC(=O)[C@H](CCCNC(=N)N)NC(=O)c1ccccc1)C(C[C@@H](C)N(C)C)(c1ccccc1)c1ccccc1.O=C(O)C(F)(F)F` [Levo-Butyl active agent, (R)-6-(dimethylamino)-4,4-diphenylhept-2-en-3-yl (4-((S)-2-benzamido-5-guanidinopentanamido)butyl)(methyl)carbamate 2,2,2-trifluoroacetate]: the clinical observations entry in series [1] (100 mg/kg and 125 mg/kg) is “no clinical observations through 72 hr period or limited observations”. The clinical observations result in series [1] (50 and 75 mg/kg) was “some observations”. Besides, in series [2], the IC50 was found to be 51.5 µM and the “Methadone Active Agent/Methadone Ratio (hERG IC50)” value worked out at 27.3.
